Assay [1] has as its system SU-DHL-6 cells (diffuse large-cell lymphoma cell line). The assay is described as follows: Cell growth inhibition test. The format is cell-based. To be noted: Homo sapiens, 72 h; SU-DHL-6 cells, 3 days culture, Table 96; read-out: Cell growth inhibition IC50. The method, then: The compound of the present invention was serially diluted with dimethyl sulfoxide and then added to an RPMI1640 medium containing 10% FBS. Each resulting solution was added at a concentration of 100 μl/well to the preceding SU-DHL-6 cell culture plate (final concentration of the compound: 10, 3, 1, 0.3, 0.1, 0.03, 0.01, and 0.003 μM). The cells were cultured at 37° C. for 3 days in an incubator containing 5% CO2. The cells thus cultured were left at room temperature for 30 minutes and then centrifuged at 1500 rpm for 3 minutes using a centrifuge (Hitachi Koki Co., Ltd., Himac CF7D2). A 100 μl aliquot of the supernatant was removed from each well to allow 100 μl of the cell culture solution to remain therein. This 100 μl of the remaining cell culture solution was supplemented with an equal amount of CellTiter-Glo Luminescent Cell Viability Assay (Promega KK, Cat#: G7573), and the mixture was then shaken for 1 minute using a plate mixer. The reaction solution was left in the dark for 10 minutes. Then, luminescence intensity derived from live cells of each well was measured using a microplate reader (PerkinElmer Inc., ARVOsx). […] Likewise, the IC50 values (μM) of the control compounds were also calculated and then compared with that of the compound of the present invention. Rate of cell growth inhibition(%)=(C−T)/C×100 T: luminescence intensity (count per second) of a well supplemented with the test compound C: luminescence intensity (count per second) of a well non-supplemented with the test compound

For assay [2], the system named is recombinant human Aurora B protein. Put plainly: Aurora B kinase activity inhibitory effect. It is filed as biochemical. To be noted: Aurora B IC50 relative to Syk IC50. On the procedure: (§1) The reaction solution was left standing in the dark at room temperature for 120 minutes. Then, fluorescence polarization values obtained by measurement using PHERAstar (BMG LABTECH JAPAN Ltd., excitation wavelength: 485 nm, detection wavelength: 520 nm) were used to determine the rate of phosphorylation reaction.

In assay [3] the target is recombinant human Aurora B protein (Homo sapiens (Human), UniProt Q96GD4). The assay is described as follows: Aurora B kinase activity inhibitory effect. As to conditions: Table 97; read-out: AuroraB inhibitory activity IC50. It is filed as biochemical. On the procedure:
as §1

For a further assay, the target named is human Syk protein (Homo sapiens (Human), UniProt P43405). Put plainly: Syk kinase inhibition test. It is filed as biochemical. As to conditions: read-out: SYK inhibitory activity IC50. On the procedure: Finally, phosphorylated peptides and non-phosphorylated peptides were separated therebetween using LabChip™ 3000 system (Caliper Life Sciences, Inc., excitation wavelength: 488 nm, detection wavelength: 530 nm). Their respective amounts were measured, and the rate of phosphorylation reaction was then determined from the ratio between the amounts. The concentration at which the compound can inhibit 50% phosphorylation reaction is defined as an IC50 value (μM).
Also, known 1,2,4-triazine-6-carboxamide derivatives A, B, and C (WO2000/075113 (A: compound No. 121 and B: compound No. 154) and WO2000/076980 (C: compound No. 39)) were synthesized as control compounds. Their IC50 values (μM) were calculated in the same way as above and then compared with that of the compound of the present invention.

For assay [4], the target named is recombinant human KDR protein (Homo sapiens (Human), UniProt P35968). Put plainly: KDR kinase activity inhibitory effect. As to conditions: for KDR inhibitory activity: Selectivity for Syk: KDR IC50 relative to Syk IC50; for pIC50: Table 97. It is filed as biochemical. The method, then: The purified recombinant human KDR protein used in the test is a house purified product. […] The mixture was incubated at 30° C. for 180 minutes to perform kinase reaction. […] Their respective amounts were measured, and the rate of phosphorylation reaction was then determined from the ratio between the amounts.
Chain of recombinant human KDR protein (P35968 20-1356): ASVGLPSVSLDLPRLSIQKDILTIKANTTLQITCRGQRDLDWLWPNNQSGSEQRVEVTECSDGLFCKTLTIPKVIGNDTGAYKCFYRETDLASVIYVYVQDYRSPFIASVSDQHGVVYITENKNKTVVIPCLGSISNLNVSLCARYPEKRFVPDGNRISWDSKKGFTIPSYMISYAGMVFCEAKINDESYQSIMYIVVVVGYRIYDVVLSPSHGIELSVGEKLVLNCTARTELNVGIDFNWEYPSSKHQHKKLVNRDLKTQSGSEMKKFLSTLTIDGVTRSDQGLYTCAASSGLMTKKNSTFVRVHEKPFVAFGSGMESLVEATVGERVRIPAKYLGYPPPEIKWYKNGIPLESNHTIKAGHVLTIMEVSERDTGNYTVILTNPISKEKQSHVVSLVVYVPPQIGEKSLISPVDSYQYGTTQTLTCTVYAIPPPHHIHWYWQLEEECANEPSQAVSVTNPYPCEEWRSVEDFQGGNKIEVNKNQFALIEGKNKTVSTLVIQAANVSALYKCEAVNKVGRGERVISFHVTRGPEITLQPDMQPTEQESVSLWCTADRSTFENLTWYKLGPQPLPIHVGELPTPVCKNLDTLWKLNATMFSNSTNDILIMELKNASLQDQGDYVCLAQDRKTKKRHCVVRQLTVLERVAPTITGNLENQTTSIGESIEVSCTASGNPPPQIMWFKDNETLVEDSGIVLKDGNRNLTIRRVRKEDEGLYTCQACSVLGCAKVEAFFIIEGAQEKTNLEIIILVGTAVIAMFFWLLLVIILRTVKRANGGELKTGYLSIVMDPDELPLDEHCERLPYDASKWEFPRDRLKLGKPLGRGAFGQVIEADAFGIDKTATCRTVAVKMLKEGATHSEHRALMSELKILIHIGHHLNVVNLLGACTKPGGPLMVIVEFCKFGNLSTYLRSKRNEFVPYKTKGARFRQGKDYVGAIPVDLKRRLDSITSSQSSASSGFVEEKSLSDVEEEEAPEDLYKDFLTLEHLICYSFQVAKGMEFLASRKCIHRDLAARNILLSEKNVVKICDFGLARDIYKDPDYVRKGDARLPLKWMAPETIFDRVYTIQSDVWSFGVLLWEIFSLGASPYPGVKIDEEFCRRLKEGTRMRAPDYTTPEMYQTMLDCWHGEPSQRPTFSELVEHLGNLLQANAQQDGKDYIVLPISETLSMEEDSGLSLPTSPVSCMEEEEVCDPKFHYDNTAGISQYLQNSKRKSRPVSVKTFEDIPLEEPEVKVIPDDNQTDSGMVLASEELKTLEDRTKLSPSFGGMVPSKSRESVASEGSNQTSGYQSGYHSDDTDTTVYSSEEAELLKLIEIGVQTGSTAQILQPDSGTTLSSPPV

Each structure is given as a SMILES string. pIC50: −log10 of the molar value. Read-outs that look alike come from different tables or passages of the source. Where only a bound is given, the exact number is not on record here.

Chain of recombinant human Aurora B protein (Homo sapiens (Human), UniProt Q96GD4) (Q96GD4 whole entry): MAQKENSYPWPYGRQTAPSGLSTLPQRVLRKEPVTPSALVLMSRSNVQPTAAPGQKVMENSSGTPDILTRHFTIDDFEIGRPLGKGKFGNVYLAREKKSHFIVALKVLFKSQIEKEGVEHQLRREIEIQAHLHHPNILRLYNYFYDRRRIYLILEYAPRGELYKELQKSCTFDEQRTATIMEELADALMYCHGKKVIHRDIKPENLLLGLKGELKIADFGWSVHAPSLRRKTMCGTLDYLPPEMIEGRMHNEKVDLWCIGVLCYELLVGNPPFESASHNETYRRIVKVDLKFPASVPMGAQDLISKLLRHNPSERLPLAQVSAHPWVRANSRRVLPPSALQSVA

As for `NC(=O)c1nnc(N[C@@H]2CCCC[C@@H]2N)nc1Nc1ccc2cn(C(F)F)nc2c1` [Example 24, 3-((1R,2S)-2-aminocyclohexylamino)-5-(2-(difluoromethyl)-2H-indazol-6-ylamino)-1,2,4-triazine-6-carboxamide], the negative-log IC50 (pIC50) – broadly, −log10 of the IC50, conventionally taken in molar units – is 6.82 in assay [1]; less than 5.00 in assay [3]; 9.28 on human Syk protein (Table 95); 9.28 at human Syk protein (Table 97); less than 5.00 in assay [4]. Further, the “AuroraB inhibitory activity: Selectivity for Syk” value in assay [2] was “(>20000 times)”. Also, the “KDR inhibitory activity: Selectivity for Syk” value in assay [4] is reported as “(>20000 times)”.
In the case of `NC(=O)c1nnc(N[C@@H]2CCOC[C@@H]2N)nc1Nc1cccc2c1ccn2C1CC1` [Example 160], the pIC50 in assay [1] was 6.78; in assay [3] it was 5.89; at human Syk protein (Table 95) it was 9.42; on human Syk protein (Table 97) it was 9.42; in assay [4], 5.85. In addition, in assay [2], the “AuroraB inhibitory activity: Selectivity for Syk” value is “(4100 times)”. Further, the “KDR inhibitory activity: Selectivity for Syk” value in assay [4] is on record as “(4400 times)”.
For the molecule `NC(=O)c1nnc(N[C@@H]2CCCC[C@@H]2N)nc1Nc1cc2ccccc2s1` [Example 161], the pIC50 in assay [1] is 7.57; in assay [3] it was 6.38; at human Syk protein (Table 95) it was 9.55; at human Syk protein (Table 97) it was 9.55; in assay [4] it was less than 5.70. Moreover, in assay [2], the “AuroraB inhibitory activity: Selectivity for Syk” value was “(1500 times)”. The “KDR inhibitory activity: Selectivity for Syk” value in assay [4] is “(>7000 times)”.
In the case of `COC[C@H](N)[C@@H](C)Nc1nnc(C(N)=O)c(Nc2cc(C)c3nn(C(C)(C)C)cc3c2)n1` [Example 274], the pIC50 in assay [1] is 6.81; on human Syk protein (Table 95), 9.02.
With `NC(=O)c1nnc(N[C@@H]2CCOC[C@@H]2N)nc1Nc1cccc2c1ccn2C1CCC1` [Example 277], the pIC50 in assay [1] was 6.74; at human Syk protein (Table 95) it was 9.39.
